Measurements published in patent US9096686B2, “E518A/K mutant smoothened and methods of using the same” (Genentech, Inc., priority 2010, dated 2015).
“Also recorded” adds a separate entry of the source. Where two headings read alike, the source gives them in different places.

How the values were obtained:
SMO-E518K = molecular target: T1, SMO-E518K (Homo sapiens, UniProt Q99835, E518K); experiment: Gli-luciferase reporter assay, SMO-E518K overexpression in C3H10T½ cells; assay type: cell-based
T1 construct: expressed in transfected cells; host or cells: C3H10T1/2 mouse fibroblasts (ATCC CCL-226), pRK5 vector, CMV promoter
T1 sequence (Q99835 28-787 E518K): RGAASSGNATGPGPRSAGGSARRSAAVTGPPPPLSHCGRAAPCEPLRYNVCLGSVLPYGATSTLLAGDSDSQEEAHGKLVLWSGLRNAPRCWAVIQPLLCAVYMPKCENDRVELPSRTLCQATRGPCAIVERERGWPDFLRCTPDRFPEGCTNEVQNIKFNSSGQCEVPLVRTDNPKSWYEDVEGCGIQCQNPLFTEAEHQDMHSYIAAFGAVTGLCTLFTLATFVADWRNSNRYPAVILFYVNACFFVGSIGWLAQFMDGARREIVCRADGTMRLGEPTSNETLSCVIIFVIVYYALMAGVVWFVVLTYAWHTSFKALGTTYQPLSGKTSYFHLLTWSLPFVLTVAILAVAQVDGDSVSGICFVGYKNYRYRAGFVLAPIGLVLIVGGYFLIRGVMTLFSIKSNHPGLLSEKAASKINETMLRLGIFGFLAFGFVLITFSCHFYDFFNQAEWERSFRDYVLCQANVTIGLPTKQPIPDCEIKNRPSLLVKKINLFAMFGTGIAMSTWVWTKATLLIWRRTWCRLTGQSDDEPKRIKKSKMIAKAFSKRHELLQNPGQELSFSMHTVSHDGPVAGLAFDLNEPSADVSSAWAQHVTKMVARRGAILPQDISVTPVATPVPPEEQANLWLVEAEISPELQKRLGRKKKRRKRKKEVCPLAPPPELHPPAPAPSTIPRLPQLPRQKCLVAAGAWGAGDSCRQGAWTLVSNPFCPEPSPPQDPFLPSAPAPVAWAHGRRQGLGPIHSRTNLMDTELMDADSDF
Method: (§1) Regions targeted by alanine scan mutagenesis are indicated in light grey. […] Values were normalized to maximum activity levels and represent means±SDs.
(§2) Circles mark the A-, B- and C-rings of some compounds as indicated for HhAntag.
(§3) Gli-luciferase reporter assays. Gli-luciferase reporter assays were performed as described (Rudin, C. M. et al. (2009) N. Engl. J. Med. 361:1173-1178) with the following modifications; C3H10T½ cells (ATCC, CCL-226) were seeded into six-well plates at 1.85×10^5 cells/well and values shown are the mean of four separate experiments ±1 standard deviation (SD).
(§4) These compounds were either identified in high-throughput screens (both in house and by others) or were generated by hit-to-lead optimization of screening hits using traditional medicinal chemistry methods. C3H10T½ cells were co-transfected with wild type or mutant SMO expression vectors together with a Gli-luciferase reporter construct (Murone M. et al. (1999) Curr. Biol. 9(2):76-84), and pathway activation was measured in the presence or absence of 1 μM compound.

SMO-D473H = molecular target: T2, SMO-D473H (Homo sapiens, UniProt Q99835, D473H); experiment: Gli-luciferase reporter assay, SMO-D473H overexpression in C3H10T½ cells; assay type: cell-based
T2 construct: expressed in transfected cells; host or cells: C3H10T1/2 mouse fibroblasts (ATCC CCL-226), pRK5 vector, CMV promoter
T2 sequence (Q99835 28-787 D473H): as the sequence (Q99835 28-787 E518K) above, with D446H, K491E counted along it
Method: as §2, §3, §4

[1] = Plasma pharmacokinetics after single oral dose in mice; assay type: in vivo
Excerpt: as §2

medulloblastoma = medulloblastoma patient, widespread metastatic disease; cited from earlier work
SMO-E518A = molecular target: T3, SMO-E518A (Homo sapiens, UniProt Q99835, E518A); experiment: Gli-luciferase reporter assay, SMO-E518A in C3H10T½ cells; assay type: cell-based; conditions: dose response; signaling activity despite 1 μM
T3 construct: expressed in transfected cells; host or cells: C3H10T1/2 mouse fibroblasts (ATCC CCL-226), pRK5 vector, CMV promoter
T3 sequence (Q99835 28-787 E518A): as the sequence (Q99835 28-787 E518K) above, with K491A counted along it
Method: as §1, §3

[2] = Metabolism by human hepatocytes; assay type: in vitro ADME; conditions: unpublished observation
SMO-WT = molecular target: T4, SMO-WT (Homo sapiens, UniProt Q99835); experiment: Gli-luciferase reporter assay, SMO-WT overexpression in C3H10T½ cells; assay type: cell-based; conditions: 1 μM compound
T4 construct: expressed in transfected cells; host or cells: C3H10T1/2 mouse fibroblasts (ATCC CCL-226), pRK5 vector, CMV promoter
T4 sequence (Q99835 28-787): as the sequence (Q99835 28-787 E518K) above, with K491E counted along it
Method: as §2, §3, §4

Compound	potency against SMO-E518K (inhibition of Gli-luciferase activity) (SMO-E518K; 1 μM compound, C3H10T½ cells)	potency against SMO-D473H (inhibition of Gli-luciferase activity) (SMO-D473H; 1 μM compound, C3H10T½ cells)	pharmacokinetic properties in mice [1]	other results
C[C@@H]1CN(c2ccc(C(=O)Nc3ccc(Cl)c(NC(=O)c4cccc(Cl)c4)c3)cn2)C[C@H](C)N1 [compound 5]	potent	potent; also recorded: improved potencies	good pharmacokinetic properties	half-life ([1]; mouse, single oral 100 mg kg-1 dose, plasma): 22 h
CC1=C2C[C@H]3[C@@H](CC=C4C[C@@H](O)CC[C@@]43C)[C@@H]2CC[C@]12O[C@@H]1C[C@H](C)CN[C@H]1[C@H]2C [cyclopamine]				potency against SMO-E518K (inhibition of Gli-luciferase activity) (SMO-E518K): completely resistant; potency against SMO-D473H (inhibition of Gli-luciferase activity) (SMO-D473H): partially resistant
CS(=O)(=O)c1ccc(C(=O)Nc2ccc(Cl)c(-c3ccccn3)c2)c(Cl)c1 [GDC-0449]				resistance of SMO-E518K to the inhibitor, Gli-luciferase reporter activity (SMO-E518K; dose response, up to 1 μM): completely resistant; clinical response to treatment (medulloblastoma): dramatic and rapid response; resistance of SMO-E518A to the inhibitor, Gli-luciferase reporter activity (SMO-E518A): partially resistant
Cc1nn(-c2ccccc2)c(C)c1/C=N/N1CCN(Cc2ccccc2)CC1 [SANT-1]	sensitive	partially resistant		
HhAntag	essentially equipotent against all SMO alleles	essentially equipotent against all SMO alleles		metabolism by human hepatocytes [2]: rapidly metabolized; activity against wild type SMO (inhibition of Gli-luciferase activity) (SMO-WT): essentially equipotent against all SMO alleles
O=C(Nc1ccc(Cl)c(NC(=O)c2cccc(Cl)c2)c1)c1ccc(N2CCC(O)CC2)nc1 [compound 4]	potent	potent; also recorded: improved potencies	good pharmacokinetic properties	
